According to PubChem BioAssay (NCI):
Values joined by “and” are separate entries in the source; they are usually repeats but may differ in a detail not shown here. Equal values may be shown once.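 These data come from cells grown in 96-well plates and exposed to compound for 48 hours at five concentrations. GI50 marks 50% less growth. The concentration for full growth arrest is given as TGI.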

How the values were obtained:
Assay in all cases: NCI tumour cell line growth inhibition, 48 h
EKVX NSCLC = tested on: EKVX NSCLC
HCT-116 colon = tested on: HCT-116 colon
NCI-H226 lung = tested on: NCI-H226 lung
MDA-MB-435 = tested on: MDA-MB-435
UACC-257 melanoma = tested on: UACC-257 melanoma
MALME-3M melanoma = tested on: MALME-3M melanoma
OVCAR-8 ovarian = tested on: OVCAR-8 ovarian
NCI-H460 lung = tested on: NCI-H460 lung
HCT-15 colon = tested on: HCT-15 colon
OVCAR-5 ovarian = tested on: OVCAR-5 ovarian

Row | SMILES | GI50 (EKVX NSCLC) [µM] | TGI (EKVX NSCLC) | GI50 (HCT-116 colon) | TGI (HCT-116 colon) [µM] | GI50 (NCI-H226 lung) [µM] | TGI (NCI-H226 lung) | GI50 (MDA-MB-435) | TGI (MDA-MB-435) | GI50 (UACC-257 melanoma) | TGI (UACC-257 melanoma) | GI50 (MALME-3M melanoma) | TGI (MALME-3M melanoma) | GI50 (OVCAR-8 ovarian) [µM] | TGI (OVCAR-8 ovarian) [µM] | GI50 (NCI-H460 lung) | TGI (NCI-H460 lung) [µM] | GI50 (HCT-15 colon) [µM] | TGI (HCT-15 colon) [µM] | GI50 (OVCAR-5 ovarian) | TGI (OVCAR-5 ovarian) [µM]
1 | COc1nc(N(C)O)nc(N(C)O)n1 | 1.56 | > 100 µM | 0.402 µM | 3.88 | 2.48 | 55.4 µM | 3.76 µM | > 100 µM | 3.52 µM | > 100 µM | 2.22 µM | 24 µM | 2.48 | > 100 | 0.454 µM | 8.62 | 0.519 | > 100 | – | –
2 | O=[N+]([O-])C1C(c2ccccc2)C12c1ccccc1-c1ccccc12 (stereo not given) | 3.22 | > 100 µM | 0.371 µM | 11.6 | 2.05 | 14.5 µM | 0.188 µM | 0.454 µM | 6.38 µM | 51.2 µM | 15 µM | 37.8 µM | 0.645 | > 24.3 | 0.589 µM | 10.7 | 0.546 | 30.4 | 4.65 µM | > 51.8
3 | Cc1c2c(nn1-c1ccc(S(=O)(=O)NC(=S)Nc3ccccc3)cc1)-c1ccccc1CC2 | > 50 | > 50 µM | 18.2 µM | > 50 | > 50 | > 50 µM | 14.4 µM | > 50 µM | > 50 µM | > 50 µM | 1.15 µM | > 50 µM | > 50 | > 50 | – | – | 38.8 | > 50 | > 50 µM | > 50
4 | Nc1nc(SCc2ccccn2)c2ncn(C3CCCC3)c2n1 | – | > 100 µM | – | > 100 | – | > 100 µM | – | > 100 µM | – | > 100 µM | – | > 100 µM | – | > 100 | – | > 100 | – | > 100 | – | > 100
5 | COc1cc(C2C=C(c3cccc(NC(C)=O)c3)Nc3ncnn32)cc(OC)c1OC (stereo not given) | 0.737 | > 100 µM | 0.424 µM | > 70.2 | 0.667 | > 100 µM | 0.117 µM | 0.579 µM | > 92.5 µM | > 100 µM | 0.389 µM | > 100 µM | 0.327 | > 100 | 2.14 µM | > 100 | 2.02 | > 100 | – | > 100
6 | CN(C)c1cccc2c(S(=O)(=O)N[C@H]3CC[C@H]4[C@@H]5CCc6cc(O)ccc6[C@H]5CC[C@]34C)cccc12 | – | – | 2.27 µM | 5.85 | 3.02 | 11.2 µM | 1.15 µM | 2.69 µM | 2.51 µM | 11.5 µM | 1.9 µM | 5.61 µM | 3.3 | 15.9 | 2 µM | 4.52 | 0.951 | 8.38 | 3.09 µM | 13.2
7 | C=C1C(=O)O[C@H]2[C@H]1CC/C(COC(=O)c1cc3cc(F)ccc3[nH]1)=C\CC[C@@]1(C)O[C@@H]21 | 1.58 | 3.71 µM | 1.5 µM | 2.96 | 1.76 | 3.52 µM | 1.5 µM | 2.96 µM | 2.28 µM | 4.26 µM | 1.67 µM | 3.53 µM | 2.17 | 6.67 | 3.04 µM | 11.5 | 1.15 | 3.34 | 1.77 µM | 4.09
8 | O=C(NNc1nc(Cl)nc(N2CCN(C(c3ccccc3)c3ccccc3)CC2)n1)c1ccccc1 | 1.99 | 4.29 µM | 1.62 µM | 3.06 | 7.25 | 25.8 µM | 1.75 µM | 3.21 µM | 2.06 µM | 4.67 µM | 1.69 µM | 3.34 µM | 1.99 | 4.67 | 1.93 µM | 3.77 | 1.62 | 3.42 | 12.7 µM | 40.7
9 | COc1cccc(C2CC(C)(N3CCCC3)Oc3cc4c(cc32)OCO4)c1O (stereo not given) | – | > 100 µM | – | > 63.6 | – | 55.9 µM | – | 18.4 µM | – | > 100 µM | – | > 100 µM | – | > 73.2 | – | > 82.1 | – | 70 | – | > 100
10 | N#Cc1c(-c2nc3ccccc3s2)c(=O)oc2cc(O)ccc12 | – | > 100 µM | – | > 100 | – | > 100 µM | – | > 100 µM | – | > 100 µM | – | 95.9 µM | – | > 100 | – | > 100 | – | > 100 | – | > 100
11 | CCOC(=O)c1c2c(n3ccc(NC(=O)CCN4CCCC4)cc13)C(=O)c1ncccc1C2=O | 1.46 | 3.58 µM | 0.175 µM | 1.94 | 19 | 45.1 µM | 1.53 µM | 3.08 µM | 13.8 µM | 33.9 µM | 15.8 µM | 41.4 µM | 1.38 | 3.49 | – | – | – | – | 1.57 µM | 3.42
12 | N#Cc1c(Sc2ccccc2N)cccc1Sc1ccccc1N | 35.6 | – | 71.9 µM | – | 96.8 | – | 43.2 µM | – | 21.3 µM | – | 25.3 µM | – | 53.8 | – | 40.3 µM | – | 55.6 | – | – | –
13 | COc1cc2c3c(n(C)c(=O)c2cc1OC)-c1cc2c(cc1/C3=C\CCCCCN)OCO2 | 16.4 | 52.2 µM | – | – | 0.601 | 13.7 µM | 4.09 µM | > 90.6 µM | 16.8 µM | 45.9 µM | 8.38 µM | 37.8 µM | – | 3.33 | 0.13 µM | 21.7 | 1.58 | 12.7 | 8.66 µM | > 52.9
14 | CN1CC[C@@H](c2c(O)cc(O)c3c(=O)cc(-c4ccccc4Cl)oc23)[C@@H](O)C1 | 0.141 | 0.435 µM and 0.947 µM | 0.0338 µM and 0.0258 µM | 27.5 | 0.0522 | 0.301 µM and 0.821 µM | 0.0886 µM and 0.0744 µM | 0.261 µM and 0.22 µM and 0.342 µM | 0.125 µM and 0.137 µM | 0.366 µM and 0.619 µM and 0.282 µM | 0.166 µM and 0.144 µM | 0.439 µM and 0.465 µM | – | – | 0.0681 µM and 0.0693 µM | – | 0.0476 | – | 0.0801 µM and 0.146 µM | –
15 | COc1ccc2cc(C(=O)/C=C/c3cc(OC)c(OC)c(OC)c3)ccc2c1 | 4.05 | 29.5 µM | 1.62 µM | 8.27 | – | – | 2.67 µM | 40.5 µM | – | – | 11 µM | 25.8 µM | 2.01 | > 50 | 1.27 µM | 5.73 | 1.77 | > 50 | – | –
16 | CC(=O)Nc1ccc2c(c1)c(C1=C(c3cn(C)c4ccccc34)C(=O)NC1=O)cn2C | – | – | 1.09 µM | > 25 | 3.1 | > 25 µM | 0.198 µM | > 25 µM | > 21.6 µM | > 25 µM | > 9.93 µM | > 25 µM | 2.68 | > 25 | 0.986 µM | > 25 | 1.02 | > 25 | > 25 µM | > 25
17 | O=c1oc2cc(OS(=O)(=O)c3ccc(F)cc3)ccc2c2c1CCCCC2 | – | – | 6.24 µM | > 100 | > 100 | > 100 µM | > 100 µM | > 100 µM | > 100 µM | > 100 µM | > 100 µM | > 100 µM | > 100 | > 100 | > 100 µM | > 100 | – | – | > 100 µM | > 100
18 | Cc1cc(-c2ncc(CC(=O)Nc3ccc(-c4cnccn4)cn3)cc2C)ccn1 | – | – | 49 µM | > 100 | 13.7 | > 100 µM | 21.8 µM | > 100 µM | 16.6 µM | > 100 µM | 21.2 µM | > 100 µM | 25.6 | > 100 | 63 µM | > 100 | 38.4 | > 100 | 26.3 µM | > 100
19 | COc1ccc(Cl)cc1Nc1nc(C(F)(F)F)ccc1C(=O)N/N=C/c1c(Cl)cccc1Cl | – | – | 3.3 µM | > 100 | 5.54 | > 100 µM | > 100 µM | > 100 µM | > 100 µM | > 100 µM | 3.46 µM | 54.7 µM | – | – | 4.52 µM | > 100 | 3.26 | > 100 | > 100 µM | > 100
20 | N#CCC1COc2ccccc2O1 (stereo not given) | – | – | – | > 10 | – | – | – | > 10 µM | – | > 10 µM | – | > 10 µM | – | > 10 | – | – | – | > 10 | – | > 10
21 | COc1cc(-c2nn(-c3ccc(NC(=O)c4ccc(Cl)c(Cl)c4)cc3)cc2-c2ccncc2)ccc1Cl | 6.82 | > 100 µM | 4.6 µM | > 100 | > 100 | > 100 µM | 7.14 µM | > 100 µM | > 100 µM | > 100 µM | – | – | 5.28 | > 100 | 4.17 µM | > 100 | 2.68 | > 100 | > 100 µM | > 100
22 | COc1cc(C2CC(c3ccc(C)cc3)=NN2C=O)ccc1Oc1ccnc2cc(Cl)ccc12 (stereo not given) | 7.75 | > 50 µM | 2.5 µM | > 50 | 1.81 | > 50 µM | > 50 µM | > 50 µM | > 50 µM | > 50 µM | > 50 µM | > 50 µM | – | – | > 50 µM | > 50 | > 50 | > 50 | > 50 µM | > 50
